Experimental data from PubChem BioAssay AID330 (DTP/NCI, 2004).
Several values for one entry are separate records, joined by “and”; a condition that tells them apart may be missing. Equal entries are not always repeated. Toxic doses and inconclusive results are not listed. Rule for the calls: active = survival T/C of 150% or more; inactive = T/C below 125% in these data.

Tested on: P388 leukemia ip, CD2F1 mice, survival T/C
Assay: NCI In Vivo Anticancer Drug Screen. Data for tumor model P388 Leukemia (intraperitoneal) in CD2F1 (CDF1) mice
Details: endpoint: median survival time, higher = longer survival
In short: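 Mice carrying the transplanted tumor received test compound or vehicle. Survival was recorded in each group, and the value is the treated-group measurement divided by that of the vehicle-treated control group.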

[1] = dose: 50.0 mg/kg/injection, schedule: Q01DX005 (ip), vehicle: Klucel (hydroxypropylcellulose) (HPC)
[2] = dose: 100.0 mg/kg/injection, schedule: Q01DX005 (ip), vehicle: Klucel (hydroxypropylcellulose) (HPC)
[3] = dose: 60.0 mg/kg/injection, schedule: Q01DX005 (ip), vehicle: Klucel (hydroxypropylcellulose) (HPC)
[4] = dose: 120.0 mg/kg/injection, schedule: Q01DX005 (ip), vehicle: Klucel (hydroxypropylcellulose) (HPC)
[5] = dose: 50.0 mg/kg/injection, schedule: Q01DX009 (ip), vehicle: saline with Tween-80
[6] = dose: 50.0 mg/kg/injection, schedule: Q01DX005 (ip), vehicle: saline with Tween-80
[7] = dose: 100.0 mg/kg/injection, schedule: Q01DX005 (ip), vehicle: saline with Tween-80
[8] = dose: 200.0 mg/kg/injection, schedule: Q01DX005 (ip), vehicle: saline with Tween-80
[9] = dose: 100.0 mg/kg/injection, schedule: Q01DX009 (ip), vehicle: saline with Tween-80
[10] = dose: 200.0 mg/kg/injection, schedule: Q01DX009 (ip), vehicle: saline with Tween-80
[11] = dose: 100.0 mg/kg/injection, schedule: Q01DX001 (ip), vehicle: saline with Tween-80
[12] = dose: 200.0 mg/kg/injection, schedule: Q01DX001 (ip), vehicle: saline with Tween-80
[13] = dose: 400.0 mg/kg/injection, schedule: Q01DX001 (ip), vehicle: saline with Tween-80
[14] = dose: 60.0 mg/kg/injection, schedule: Q01DX005 (ip), vehicle: saline with Tween-80
[15] = dose: 120.0 mg/kg/injection, schedule: Q01DX005 (ip), vehicle: saline with Tween-80
[16] = dose: 240.0 mg/kg/injection, schedule: Q01DX005 (ip), vehicle: saline with Tween-80

Measured: T/C

O=Nc1c(O)c2ccccc2c2ccccc12
inactive: dose: 25.0 mg/kg/injection, schedule: Q01DX005 (ip), vehicle: Klucel (hydroxypropylcellulose) (HPC) 102 % of control | [1] 102 % of control | [2] 112 % of control

COc1cccc(/C=C2/C(=O)N(c3ccccc3)N=C2C)c1OC
inactive: [3] 101 % of control | [4] 100 % of control | dose: 240.0 mg/kg/injection, schedule: Q01DX005 (ip), vehicle: Klucel (hydroxypropylcellulose) (HPC) 110 % of control

CCOC(=O)C1=CC(Oc2cc(NS(=O)(=O)c3ccccc3)ccc2O)C(C(=O)OCC)=CC1Oc1cc(NS(=O)(=O)c2ccccc2)ccc1O (stereo not drawn)
inactive: dose: 37.5 mg/kg/injection, schedule: Q01DX001 (ip), vehicle: saline with Tween-80 105 % of control | dose: 75.0 mg/kg/injection, schedule: Q01DX001 (ip), vehicle: saline with Tween-80 100 % of control | dose: 150.0 mg/kg/injection, schedule: Q01DX001 (ip), vehicle: saline with Tween-80 100 % of control

Cc1c([N+](=O)[O-])oc2c1C(=O)c1ccccc1C2=O
inactive: dose: 15.0 mg/kg/injection, schedule: Q01DX005 (ip), vehicle: Klucel (hydroxypropylcellulose) (HPC) 95 % of control | dose: 30.0 mg/kg/injection, schedule: Q01DX005 (ip), vehicle: Klucel (hydroxypropylcellulose) (HPC) 95 % of control | [3] 95 % of control and 96 % of control | [4] 102 % of control

CCCCCCCCCCCCCC1=NCCN1CCN
inactive: dose: 6.25 mg/kg/injection, schedule: Q01DX009 (ip), vehicle: saline with Tween-80 108 % of control and 94 % of control | dose: 12.5 mg/kg/injection, schedule: Q01DX009 (ip), vehicle: saline with Tween-80 105 % of control and 108 % of control and 109 % of control | dose: 25.0 mg/kg/injection, schedule: Q01DX009 (ip), vehicle: saline with Tween-80 107 % of control and 108 % of control and 111 % of control | [5] 99 % of control and 108 % of control | dose: 50.0 mg/kg/injection, schedule: Q01DX009 (ip), vehicle: saline 96 % of control | dose: 100.0 mg/kg/injection, schedule: Q01DX009 (ip), vehicle: saline 87 % of control

CCOc1c(N=Nc2ccccc2Cl)c(-c2ccccc2)nn1C(N)=S
inactive: [6] 94 % of control | [7] 90 % of control | [8] 102 % of control

C=CCC1(CCC)C(=O)NC(=S)NC1=O
inactive: [5] 110 % of control | [9] 117 % of control | [10] 115 % of control

CC1=CN2C3=NCCN3C3=[N+](C)CCN3C2C=C1 (stereo not drawn)
inactive: dose: 12.5 mg/kg/injection, schedule: Q01DX005 (ip), vehicle: saline 104 % of control | dose: 25.0 mg/kg/injection, schedule: Q01DX005 (ip), vehicle: saline 101 % of control | dose: 50.0 mg/kg/injection, schedule: Q01DX005 (ip), vehicle: saline 100 % of control and 112 % of control

COc1nc2c(c(O)cn2C2OCC(OC(C)=O)C(OC(C)=O)C2OC(C)=O)c(=O)n1C (stereo not drawn)
inactive: [11] 106 % of control | [12] 92 % of control | [13] 99 % of control

COc1cc(C(=O)CC(=O)CCC(=O)Nc2ccc(C)c(C)c2)ccc1O
inactive: [14] 102 % of control | [15] 104 % of control | [16] 102 % of control

O=C(c1ccccc1)C1Nc2ccc(Cl)cc2C2C=CCC12 (stereo not drawn)
inactive: [14] 102 % of control | [15] 94 % of control | [16] 93 % of control

C=C1OC(CC(C)C)=C(C(=O)OC(C)(C)C)C1C (stereo not drawn)
inactive: [11] 99 % of control | [12] 99 % of control | [13] 100 % of control

N=C1SCC(=O)C1C(=O)O (stereo not drawn)
inactive: [6] 105 % of control | [7] 119 % of control | [8] 110 % of control

COc1nc2c(ccn2C2OC(COC(C)=O)C(OC(C)=O)C(OC(C)=O)C2OC(C)=O)c(=O)[nH]1 (stereo not drawn)
inactive: [11] 104 % of control | [12] 100 % of control | [13] 100 % of control

COc1ccc(OC)c2c1CCC1(C2)NC(=O)NC1=O (stereo not drawn)
inactive: [1] 111 % of control | [2] 100 % of control | dose: 200.0 mg/kg/injection, schedule: Q01DX005 (ip), vehicle: Klucel (hydroxypropylcellulose) (HPC) 95 % of control

CN(C)C1=CC=C2C(=O)c3ccccc3C2(c2ccccc2)C=C1 (stereo not drawn)
inactive: dose: 100.0 mg/kg/injection, schedule: Q04DX002 (ip), vehicle: saline with Tween-80 89 % of control | dose: 200.0 mg/kg/injection, schedule: Q04DX002 (ip), vehicle: saline with Tween-80 88 % of control | dose: 400.0 mg/kg/injection, schedule: Q04DX002 (ip), vehicle: saline with Tween-80 89 % of control

C=C1C(=C)C2OC1c1cc3c(cc12)C(=O)C=CC3=O
inactive: dose: 12.5 mg/kg/injection, schedule: Q01DX005 (ip), vehicle: saline with Tween-80 100 % of control | dose: 25.0 mg/kg/injection, schedule: Q01DX005 (ip), vehicle: saline with Tween-80 91 % of control

OC1(c2ccccc2)C(c2ccccc2)=C(c2ccccc2)C(c2ccc(CCc3ccc(C4=C(c5ccccc5)C(O)(c5ccccc5)C(c5ccccc5)=C4c4ccccc4)cc3)cc2)=C1c1ccccc1 (stereo not drawn)
inactive: dose: 6.25 mg/kg/injection, schedule: Q01DX001 (ip), vehicle: Klucel (hydroxypropylcellulose) (HPC) 105 % of control | dose: 12.5 mg/kg/injection, schedule: Q01DX001 (ip), vehicle: Klucel (hydroxypropylcellulose) (HPC) 111 % of control | dose: 25.0 mg/kg/injection, schedule: Q01DX001 (ip), vehicle: Klucel (hydroxypropylcellulose) (HPC) 90 % of control | dose: 50.0 mg/kg/injection, schedule: Q01DX001 (ip), vehicle: Klucel (hydroxypropylcellulose) (HPC) 94 % of control

O=C1CN=C(c2ccccn2)c2cc(Cl)ccc2N1CCO
inactive: [9] 100 % of control | [10] 105 % of control

COc1ccc(C(=O)C(=O)c2ccc(OC)c(OC)c2)cc1OC
inactive: [9] 96 % of control | [10] 96 % of control | dose: 400.0 mg/kg/injection, schedule: Q01DX009 (ip), vehicle: saline with Tween-80 92 % of control

CCn1c(S)c(N=NC(=S)c2ccc3ccccc3n2)c2ccccc21
inactive: dose: 50.0 mg/kg/injection, schedule: Q04DX003 (ip), vehicle: saline 98 % of control | dose: 100.0 mg/kg/injection, schedule: Q04DX003 (ip), vehicle: saline 96 % of control | dose: 200.0 mg/kg/injection, schedule: Q04DX003 (ip), vehicle: saline 103 % of control

Clc1n[nH]c(Cl)n1
inactive: [9] 95 % of control

CC(C)(C)SC(=O)C1CC1
inactive: dose: 100.0 mg/kg/injection, schedule: Q04DX003 (ip), vehicle: saline with Tween-80 111 % of control | dose: 200.0 mg/kg/injection, schedule: Q04DX003 (ip), vehicle: saline with Tween-80 102 % of control

COc1cc2c(cc1Oc1ccc(OC)c3c1CC1c4c(cc(OC)c(OC)c4-3)CCN1C)CC1c3c(cc(OC)c(OC)c3-2)CCN1C (stereo not drawn)
inactive: dose: 20.0 mg/kg/injection, schedule: Q01DX009 (ip), vehicle: water 94 % of control | dose: 40.0 mg/kg/injection, schedule: Q01DX009 (ip), vehicle: water 101 % of control | dose: 80.0 mg/kg/injection, schedule: Q01DX009 (ip), vehicle: water 93 % of control | dose: 160.0 mg/kg/injection, schedule: Q01DX009 (ip), vehicle: water 93 % of control

COc1cccc2c1SCC/C2=N\OCC(O)CNC1CCCCC1 (stereo not drawn)
inactive: dose: 100.0 mg/kg/injection, schedule: Q04DX002 (ip), vehicle: Klucel (hydroxypropylcellulose) (HPC) 94 % of control | dose: 200.0 mg/kg/injection, schedule: Q04DX002 (ip), vehicle: Klucel (hydroxypropylcellulose) (HPC) 94 % of control

C=CC(C)(C)/C=C/C=O
inactive: [14] 97 % of control | [15] 92 % of control | [16] 104 % of control
